Non-standard residues stand in square brackets, D forms with d. Residues, ends and D or L forms follow the SMILES beside them. ξ: configuration not given here. *: point of attachment. Phe(3,4-Cl2) = N[C@@H](Cc1ccc(Cl)c(Cl)c1)C(=O)O; Phe(F5) = N[C@@H](Cc1c(F)c(F)c(F)c(F)c1F)C(=O)O; Phe(2,4-Cl2) = N[C@@H](Cc1ccc(Cl)cc1Cl)C(=O)O; Phe(2-CF3) = N[C@@H](Cc1ccccc1C(F)(F)F)C(=O)O; ξTrp(6-F) = NC(Cc1c[nH]c2cc(F)ccc12)C(=O)O; Phe(3-Cl) = N[C@@H](Cc1cccc(Cl)c1)C(=O)O; Phe(4-Cl) = N[C@@H](Cc1ccc(Cl)cc1)C(=O)O; Phe(4-F) = N[C@@H](Cc1ccc(F)cc1)C(=O)O; Phe(4-Me) = Cc1ccc(C[C@H](N)C(=O)O)cc1; 1Nal = N[C@@H](Cc1cccc2ccccc12)C(=O)O; 2Nal = N[C@@H](Cc1ccc2ccccc2c1)C(=O)O; Bta = N[C@@H](Cc1csc2ccccc12)C(=O)O; d(hLeu) = CC(C)CC[C@@H](N)C(=O)O; 2Thi = N[C@@H](Cc1cccs1)C(=O)O; Cha = N[C@@H](CC1CCCCC1)C(=O)O; dCha = N[C@H](CC1CCCCC1)C(=O)O; Aic = NC1(C(=O)O)Cc2ccccc2C1; Chg = N[C@H](C(=O)O)C1CCCCC1; Orn = NCCC[C@H](N)C(=O)O; tBu = CC(C)(C)*
Target: T1, human C5aR(CD88) (Homo sapiens, UniProt P21730)
T1 construct: expressed in transfected cells; host or cells: rat basophilic leukemia cells (RBL)
T1 sequence (P21730 1-350): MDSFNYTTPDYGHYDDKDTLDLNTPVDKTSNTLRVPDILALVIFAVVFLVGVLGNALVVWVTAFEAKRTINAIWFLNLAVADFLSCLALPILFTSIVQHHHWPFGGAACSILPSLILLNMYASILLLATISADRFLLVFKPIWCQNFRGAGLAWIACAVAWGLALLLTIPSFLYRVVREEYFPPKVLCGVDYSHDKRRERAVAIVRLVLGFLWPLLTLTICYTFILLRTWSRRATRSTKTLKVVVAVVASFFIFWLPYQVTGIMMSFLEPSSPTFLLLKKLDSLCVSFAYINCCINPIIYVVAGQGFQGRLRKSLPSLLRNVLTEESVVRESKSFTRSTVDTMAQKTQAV
Experiment: Determination of the IC50 value in an enzyme release assay (functional assay, antagonistic activity)
Type: cell-based
Details: antagonistic activity; IC50 group in enzyme release assay, RBL cells expressing human C5aR(CD88); read-out: activity (group)

Compound | IC50 [µM]
CC(=O)N[C@@H](Cc1ccccc1)C(=O)N[C@@H](CCCN)C(=O)N1CCC[C@H]1C(=O)N[C@H](CC1CCCCC1)C(=O)N[C@@H](Cc1csc2ccccc12)C(=O)N[C@@H](Cc1ccc(Cl)cc1)C(N)=O [Compound 259, Ac-Phe-Orn-Pro-cha-Bta-Pcf-NH2] (Ac-F[Orn]P[dCha][Bta][Phe(4-Cl)]-NH2) | 0.02 to 0.05
CC(=O)N[C@@H](Cc1ccccc1)C(=O)N[C@@H](CCCN)C(=O)N1CCC[C@H]1C(=O)N[C@H](CC1CCCCC1)C(=O)N[C@@H](Cc1csc2ccccc12)C(=O)N[C@@H](Cc1ccc(C)cc1)C(N)=O [Compound 260, Ac-Phe-Orn-Pro-cha-Bta-Pmf-NH2] (Ac-F[Orn]P[dCha][Bta][Phe(4-Me)]-NH2) | 0.02 to 0.05
CC(=O)N[C@@H](Cc1ccccc1)C(=O)N[C@@H](CCCN)C(=O)N1CCC[C@H]1C(=O)N[C@H](CC1CCCCC1)C(=O)N[C@@H](Cc1csc2ccccc12)C(=O)N[C@@H](Cc1cccs1)C(N)=O [Compound 261, Ac-Phe-Orn-Pro-cha-Bta-Thi-NH2] (Ac-F[Orn]P[dCha][Bta][2Thi]-NH2) | 0.01 to 0.02
CC(=O)N[C@@H](Cc1ccccc1)C(=O)N[C@@H](CCCN)C(=O)N1CCC[C@H]1C(=O)N[C@H](CC1CCCCC1)C(=O)N[C@@H](Cc1ccccc1C(F)(F)F)C(=O)N[C@@H](Cc1ccccc1)C(N)=O [Compound 262, Ac-Phe-Orn-Pro-cha-Otf-Phe-NH2] (Ac-F[Orn]P[dCha][Phe(2-CF3)]F-NH2) | 0.05 to 0.2
CC(=O)N[C@@H](Cc1ccccc1)C(=O)N[C@@H](CCCN)C(=O)N1CCC[C@H]1C(=O)N[C@H](CSC(C)(C)C)C(=O)N[C@@H](Cc1csc2ccccc12)C(=O)N[C@@H](Cc1ccccc1)C(N)=O [Compound 263, Ac-Phe-Orn-Pro-ctb-Bta-Phe-NH2] (Ac-F[Orn]P[dC](tBu)[Bta]F-NH2) | 0.02 to 0.05
CC(=O)N[C@@H](Cc1ccccc1)C(=O)N[C@@H](CCCN)C(=O)N1CCC[C@H]1C(=O)N[C@H](CSC(C)(C)C)C(=O)N[C@@H](Cc1ccc(Cl)c(Cl)c1)C(=O)N[C@@H](Cc1ccccc1)C(N)=O [Compound 264, Ac-Phe-Orn-Pro-ctb-Eaa-Phe-NH2] (Ac-F[Orn]P[dC](tBu)[Phe(3,4-Cl2)]F-NH2) | 0.02 to 0.05
CC(=O)N[C@@H](Cc1ccccc1)C(=O)N[C@@H](CCCN)C(=O)N1CCC[C@H]1C(=O)N[C@H](CSC(C)(C)C)C(=O)N[C@@H](Cc1cccc(Cl)c1)C(=O)N[C@@H](Cc1ccccc1)C(N)=O [Compound 265, Ac-Phe-Orn-Pro-ctb-Mcf-Phe-NH2] (Ac-F[Orn]P[dC](tBu)[Phe(3-Cl)]F-NH2) | 0.05 to 0.2
CC(=O)N[C@@H](Cc1ccccc1)C(=O)N[C@@H](CCCN)C(=O)N1CCC[C@H]1C(=O)N[C@H](CSC(C)(C)C)C(=O)N[C@@H](Cc1ccc(F)cc1)C(=O)N[C@@H](Cc1ccccc1)C(N)=O [Compound 266, Ac-Phe-Orn-Pro-ctb-Pff-Phe-NH2] (Ac-F[Orn]P[dC](tBu)[Phe(4-F)]F-NH2) | 0.02 to 0.05
CC(=O)N[C@@H](Cc1ccccc1)C(=O)N[C@@H](CCCN)C(=O)N1CCC[C@H]1C(=O)N[C@H](CCC(C)C)C(=O)N[C@@H](Cc1cccc2ccccc12)C(=O)N[C@@H](Cc1ccccc1)C(N)=O [Compound 268, Ac-Phe-Orn-Pro-hle-1Ni-Phe-NH2] (Ac-F[Orn]P[d(hLeu)][1Nal]F-NH2) | 0.02 to 0.05
CC(=O)N[C@@H](Cc1ccccc1)C(=O)N[C@@H](CCCN)C(=O)N1CCC[C@H]1C(=O)N[C@H](CCC(C)C)C(=O)NC(Cc1c[nH]c2cc(F)ccc12)C(=O)N[C@@H](Cc1ccccc1)C(N)=O (stereo partly drawn) [Compound 269, Ac-Phe-Orn-Pro-hle-6FW-Phe-NH2] (Ac-F[Orn]P[d(hLeu)][ξTrp(6-F)]F-NH2) | 0.05 to 0.2
CC(=O)N[C@@H](Cc1ccccc1)C(=O)N[C@@H](CCCN)C(=O)N1CCC[C@H]1C(=O)N[C@H](CCC(C)C)C(=O)N[C@@H](Cc1csc2ccccc12)C(=O)N[C@@H](Cc1cccc2ccccc12)C(N)=O [Compound 270, Ac-Phe-Orn-Pro-hle-Bta-1Ni—NH2] (Ac-F[Orn]P[d(hLeu)][Bta][1Nal]-NH2) | 0.05 to 0.2
CC(=O)N[C@@H](Cc1ccccc1)C(=O)N[C@@H](CCCN)C(=O)N1CCC[C@H]1C(=O)N[C@H](CCC(C)C)C(=O)N[C@@H](Cc1csc2ccccc12)C(=O)N[C@@H](Cc1ccc2ccccc2c1)C(N)=O [Compound 271, Ac-Phe-Orn-Pro-hle-Bta-2Ni—NH2] (Ac-F[Orn]P[d(hLeu)][Bta][2Nal]-NH2) | 0.05 to 0.2
CC(=O)N[C@@H](Cc1ccccc1)C(=O)N[C@@H](CCCN)C(=O)N1CCC[C@H]1C(=O)N[C@H](CCC(C)C)C(=O)N[C@@H](Cc1csc2ccccc12)C(=O)N[C@@H](Cc1c(F)c(F)c(F)c(F)c1F)C(N)=O [Compound 272, Ac-Phe-Orn-Pro-hle-Bta-5Ff-NH2] (Ac-F[Orn]P[d(hLeu)][Bta][Phe(F5)]-NH2) | 0.05 to 0.2
CC(=O)N[C@@H](Cc1ccccc1)C(=O)N[C@@H](CCCN)C(=O)N1CCC[C@H]1C(=O)N[C@H](CCC(C)C)C(=O)N[C@@H](Cc1csc2ccccc12)C(=O)NC1(C(N)=O)Cc2ccccc2C1 [Compound 273, Ac-Phe-Orn-Pro-hle-Bta-Aic-NH2] (Ac-F[Orn]P[d(hLeu)][Bta][Aic]-NH2) | 0.05 to 0.2
CC(=O)N[C@@H](Cc1ccccc1)C(=O)N[C@@H](CCCN)C(=O)N1CCC[C@H]1C(=O)N[C@H](CCC(C)C)C(=O)N[C@@H](Cc1csc2ccccc12)C(=O)N[C@@H](CC1CCCCC1)C(N)=O [Compound 274, Ac-Phe-Orn-Pro-hle-Bta-Cha-NH2] (Ac-F[Orn]P[d(hLeu)][Bta][Cha]-NH2) | 0.05 to 0.2
CC(=O)N[C@@H](Cc1ccccc1)C(=O)N[C@@H](CCCN)C(=O)N1CCC[C@H]1C(=O)N[C@H](CCC(C)C)C(=O)N[C@@H](Cc1csc2ccccc12)C(=O)N[C@H](C(N)=O)C1CCCCC1 [Compound 275, Ac-Phe-Orn-Pro-hle-Bta-Chg-NH2] (Ac-F[Orn]P[d(hLeu)][Bta][Chg]-NH2) | 0.05 to 0.2
CC(=O)N[C@@H](Cc1ccccc1)C(=O)N[C@@H](CCCN)C(=O)N1CCC[C@H]1C(=O)N[C@H](CCC(C)C)C(=O)N[C@@H](Cc1csc2ccccc12)C(=O)N[C@@H](Cc1ccc(Cl)c(Cl)c1)C(N)=O [Compound 276, Ac-Phe-Orn-Pro-hle-Bta-Eaa-NH2] (Ac-F[Orn]P[d(hLeu)][Bta][Phe(3,4-Cl2)]-NH2) | 0.05 to 0.2
CC(=O)N[C@@H](Cc1ccccc1)C(=O)N[C@@H](CCCN)C(=O)N1CCC[C@H]1C(=O)N[C@H](CCC(C)C)C(=O)N[C@@H](Cc1csc2ccccc12)C(=O)N[C@@H](Cc1ccc(Cl)cc1Cl)C(N)=O [Compound 277, Ac-Phe-Orn-Pro-hle-Bta-Egy-NH2] (Ac-F[Orn]P[d(hLeu)][Bta][Phe(2,4-Cl2)]-NH2) | 0.05 to 0.2
CC(=O)N[C@@H](Cc1ccccc1)C(=O)N[C@@H](CCCN)C(=O)N1CCC[C@H]1C(=O)N[C@H](CCC(C)C)C(=O)N[C@@H](Cc1csc2ccccc12)C(=O)N[C@@H](Cc1ccc(Cl)cc1)C(N)=O [Compound 278, Ac-Phe-Orn-Pro-hle-Bta-Pcf-NH2] (Ac-F[Orn]P[d(hLeu)][Bta][Phe(4-Cl)]-NH2) | 0.05 to 0.2
CC(=O)N[C@@H](Cc1ccccc1)C(=O)N[C@@H](CCCN)C(=O)N1CCC[C@H]1C(=O)N[C@H](CCC(C)C)C(=O)N[C@@H](Cc1csc2ccccc12)C(=O)N[C@@H](Cc1ccc(F)cc1)C(N)=O [Compound 279, Ac-Phe-Orn-Pro-hle-Bta-Pff-NH2] (Ac-F[Orn]P[d(hLeu)][Bta][Phe(4-F)]-NH2) | 0.05 to 0.2

Reference: patent US20080161232A1, “C5a Receptor Antagonist” (JERINI AG, priority 2005, published 2008)
